Assay results reported in US4112228A, “7-(D-α-Hydroxy-2-arylacetamido)-3-(2-carboxyalkyl-2,3-dihydro-s-tri azolo-[4,3-b]pyridazin-3-on-6-ylthiomethyl)-3-cephem-4-carboxylic acids and derivatives” (priority 1977, dated 1978).
Values after ≈ are worked out from the molar mass of the structure shown. Read-outs that look alike come from different tables or passages of the source.

Assays:
[1] = pH of aqueous solution of the salt; assay type: physicochemical
Pr. vulgaris = experiment: MIC by Steers' agar dilution method; conditions: Proteus vulgaris, MHA, Example 10
S. aureus = experiment: MIC by Steers' agar dilution method; assay type: cell-based; conditions: Staphylococcus aureus, MHA, Example 10
Shig. sonnei = experiment: MIC by Steers' agar dilution method; assay type: cell-based; conditions: Shigella sonnei, MHA; Example 10
Pr. rettgeri = experiment: MIC by Steers' agar dilution method; conditions: Providencia rettgeri, MHA; Example 10
Serr. marcescens = experiment: MIC by Steers' agar dilution method; conditions: Serratia marcescens, MHA; Example 10
Sal. enteritidis = experiment: MIC by Steers' agar dilution method; conditions: Salmonella enterica, MHA, Example 10
Sal. typhosa = experiment: MIC by Steers' agar dilution method; assay type: cell-based; conditions: MHA; Example 10
Ps. aeruginosa = experiment: MIC by Steers' agar dilution method; conditions: Pseudomonas aeruginosa, MHA, Example 10
St. faecalis = experiment: MIC by Steers' agar dilution method; conditions: Enterococcus faecalis, MHA; Example 10
Shig. dysenteriae = experiment: MIC by Steers' agar dilution method; conditions: Shigella dysenteriae, MHA; Example 10
B. anthracis = experiment: microbe, parasite or virus in culture; assay type: cell-based; conditions: Bacillus anthracis, MHA; Example 10
Shig. flexneri = experiment: MIC by Steers' agar dilution method; assay type: cell-based; conditions: Shigella flexneri, MHA; Example 10
Enterob. cloacae = experiment: MIC by Steers' agar dilution method; conditions: MHA; Example 10
Pr. morganii = experiment: MIC by Steers' agar dilution method; conditions: Morganella morganii, MHA, Example 10
Pr. mirabilis = experiment: MIC by Steers' agar dilution method; conditions: Proteus mirabilis, MHA, Example 10
E. coli = experiment: MIC by Steers' agar dilution method; assay type: cell-based; conditions: Escherichia coli, MHA, Example 10
Kl. pneumoniae = experiment: MIC by Steers' agar dilution method; assay type: cell-based; conditions: Klebsiella pneumoniae, MHA, Example 10
[2] = Nephrotoxicity test in rabbits; conditions: comparative test

Question: Which “pH of the aqueous solution” value ([1]; 5% aqueous solution) does the source give for `O=C(O)Cn1nc2ccc(SCC3=C(C(=O)O)N4C(=O)C(NC(=O)[C@H](O)c5ccccc5)C4SC3)nn2c1=O` (stereo partly drawn) [Example 6, disodium 7-(D-mandelamido)-3-(2-carboxymethyl-2,3-dihydro-s-triazolo[4,3-b]pyridazin-3-on-6-ylthiomethyl)-3-cephem-4-carboxylylate] here?
Answer: 5.4

Question: Which “pH of the aqueous solution” value ([1]; 10% aqueous solution) does the source give for `O=C(O)Cn1nc2ccc(SCC3=C(C(=O)[O-])N4C(=O)C(NC(=O)[C@H](O)c5ccccc5)[C@H]4SC3)nn2c1=O.[Na+]` (stereo partly drawn) [Sodium Salt of BB-S488, sodium 7-(D-mandelamido)-3-(2-carboxymethyl-2,3-dihydro-s-triazolo[4,3-b]pyridazin-3-on-6-ylthiomethyl)-3-cephem-4-carboxylate] here?
Answer: 3.6

Question: With `O=C(O)CCn1nc2ccc(SCC3=C(C(=O)O)N4C(=O)C(NC(=O)[C@H](O)c5ccccc5)[C@H]4SC3)nn2c1=O` (single isomer, unassigned) [BB-S 527, 7-[D(-)-Mandelamido]-3-[2-(2-carboxyethyl)-2,3-dihydro-s-triazolo-[4,3-b]pyridazin-3-on-6-ylthiomethyl]-3-cephem-4-carboxylic acid] as the compound, how does the MIC (Pr. vulgaris; strain not given (1st of 2)) read?
Answer: 0.1 µg/mL (≈ 0.17 µM)

Question: What about the MIC (Pr. vulgaris; strain not named (2nd of 2)) of the same compound?
Answer: 12.5 µg/mL (≈ 21.3 µM)

Question: What about the MIC (S. aureus; BX-1633) of the same compound?
Answer: 3.1 µg/mL (≈ 5.28 µM)

Question: What about the MIC (S. aureus; Smith) of the same compound?
Answer: 1.6 µg/mL (≈ 2.73 µM)

Question: What about the MIC (S. aureus; strain not named) of the same compound?
Answer: 0.4 µg/mL (≈ 0.682 µM)

Question: What about the MIC (Shig. sonnei) of the same compound?
Answer: 0.1 µg/mL (≈ 0.17 µM)

Question: What about the MIC (Pr. rettgeri) of the same compound?
Answer: 0.2 µg/mL (≈ 0.341 µM)

Question: And the MIC (Serr. marcescens)?
Answer: > 100 µg/mL

Question: What about the MIC (Sal. enteritidis) of the same compound?
Answer: 0.05 µg/mL (≈ 0.0852 µM)

Question: And the MIC (Sal. typhosa)?
Answer: 0.1 µg/mL (≈ 0.17 µM)

Question: What about the MIC (Ps. aeruginosa; strain not given (1st of 2)) of the same compound?
Answer: > 100 µg/mL

Question: And the MIC (Ps. aeruginosa; strain not named (2nd of 2))?
Answer: > 100 µg/mL

Question: What about the MIC (St. faecalis) of the same compound?
Answer: > 100 µg/mL

Question: And the MIC (Shig. dysenteriae)?
Answer: 0.025 µg/mL (≈ 0.0426 µM)

Question: What about the MIC (B. anthracis) of the same compound?
Answer: 0.4 µg/mL (≈ 0.682 µM)

Question: What about the MIC (Shig. flexneri) of the same compound?
Answer: 50 µg/mL (≈ 85.2 µM)

Question: What about the MIC (Enterob. cloacae) of the same compound?
Answer: 6.3 µg/mL (≈ 10.7 µM)

Question: What about the MIC (Pr. morganii; strain not given (1st of 2)) of the same compound?
Answer: > 100 µg/mL

Question: And the MIC (Pr. morganii; strain not named (2nd of 2))?
Answer: 0.4 µg/mL (≈ 0.682 µM)

Question: And the MIC (Pr. mirabilis; strain not given (1st of 2))?
Answer: 0.2 µg/mL (≈ 0.341 µM)

Question: And the MIC (Pr. mirabilis; strain not named (2nd of 2))?
Answer: 0.1 µg/mL (≈ 0.17 µM)

Question: What about the MIC (E. coli; ATCC8739, ATCC 8739) of the same compound?
Answer: 12.5 µg/mL (≈ 21.3 µM)

Question: What about the MIC (E. coli; BX-1373, read-out: MIC) of the same compound?
Answer: 6.3 µg/mL (≈ 10.7 µM)

Question: What about the MIC (E. coli; Juhl, read-out: MIC) of the same compound?
Answer: 0.4 µg/mL (≈ 0.682 µM)

Question: What about the MIC (E. coli; NIHJ, read-out: MIC) of the same compound?
Answer: 0.4 µg/mL (≈ 0.682 µM)

Question: What about the MIC (E. coli; strain not named (1st of 3), read-out: MIC) of the same compound?
Answer: 0.1 µg/mL (≈ 0.17 µM)

Question: And the MIC (E. coli; strain not named (2nd of 3), read-out: MIC)?
Answer: 0.1 µg/mL (≈ 0.17 µM)

Question: What about the MIC (E. coli; strain not named (3rd of 3), read-out: MIC) of the same compound?
Answer: 6.3 µg/mL (≈ 10.7 µM)

Question: What about the MIC (Kl. pneumoniae; strain not named (1st of 4)) of the same compound?
Answer: 6.3 µg/mL (≈ 10.7 µM)

Question: What about the MIC (Kl. pneumoniae; strain not named (2nd of 4)) of the same compound?
Answer: 0.2 µg/mL (≈ 0.341 µM)

Question: And the MIC (Kl. pneumoniae; strain not named (3rd of 4))?
Answer: 0.8 µg/mL (≈ 1.36 µM)

Question: What about the MIC (Kl. pneumoniae; strain not named (4th of 4)) of the same compound?
Answer: 0.4 µg/mL (≈ 0.682 µM)

Question: Which Nephrotoxicity [2] does the source give for `O=C(Cc1cccs1)N[C@@H]1C(=O)N2C(C(=O)[O-])=C(C[n+]3ccccc3)CS[C@H]12` [cephaloridine, reference compound] here?
Answer: severe nephrotoxicity
